Source: PMC12775434, “Ultra-large virtual screening unveils potent agonists of the neuromodulatory orphan receptor GPR139” (Nature Communications, 2025)
Several values for one entry are separate records, joined by “and”; a condition that tells them apart may be missing. Equal values may be shown once.

Experiments:
GPR139 [1] = target: T1, GPR139 (Homo sapiens, UniProt Q6DWJ6); assay: Ca2+ mobilization assay, agonist mode, stable GPR139-CHOk1 cell line; type: cell-based; details: Agonist mode; individual replicates (Supplementary Figure 1)
T1 sequence (Q6DWJ6 1-353): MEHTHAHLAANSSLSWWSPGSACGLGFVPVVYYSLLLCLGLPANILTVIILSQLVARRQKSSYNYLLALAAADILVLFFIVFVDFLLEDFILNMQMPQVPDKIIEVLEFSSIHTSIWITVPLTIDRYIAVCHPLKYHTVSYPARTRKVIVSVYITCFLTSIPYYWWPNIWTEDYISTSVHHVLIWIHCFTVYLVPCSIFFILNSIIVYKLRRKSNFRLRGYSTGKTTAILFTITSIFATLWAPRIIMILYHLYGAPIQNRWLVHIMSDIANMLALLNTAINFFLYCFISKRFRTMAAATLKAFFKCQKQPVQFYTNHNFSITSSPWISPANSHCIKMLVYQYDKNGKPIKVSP
Protocol: Primary screening and pharmacological characterization of compounds were performed using a CHO-K1 cell line that stably expresses human GPR139 (GPR139-CHOk1). The GPR139-CHOk1 cell line was kindly provided by H. Lundbeck A/S, Denmark[24]. GPR139-CHOk1 cells were grown in Ham’s F-12 Kaighn’s Modification Medium (ThermoFisher #21127030) supplemented with 10% dialyzed fetal bovine serum (US origin, ThermoFisher #26400044), 100 units/mL Penicillin-Streptomycin (ThermoFisher #15140122), and 1 mg/mL Geneticin (ThermoFisher #11811031). […] M1R-CHOk1 cells were purchased from The Missouri S&T cDNA Resource Center (#CEM100TN00). M1R-CHOk1 cells were grown in Ham’s F12 Medium (ThermoFisher #21765029) supplemented with 10% fetal bovine serum (Brazilian origin, ThermoFisher #10270106), 100 units/mL Penicillin-Streptomycin, and 0.25 mg/mL Geneticin. HEK293A cells transiently transfected with GPR139 were used for additional pharmacological assessment of signaling pathways activated by GPR139. HEK239A cells were generously provided by Dr. Asuka Inoue, Tohoku University, Japan. HEK293A cells were grown in Dulbecco’s Modified Eagle Medium (ThermoFisher #31966047) supplemented with 10% dialyzed fetal bovine serum and 100 units/mL Penicillin-Streptomycin. Cell lines were maintained at 37 °C in humidified incubator equilibrated with 5% CO2.
(§1) 30,000 GPR139- or M1R-CHOk1 cells/well were seeded in black clear bottom tissue culture treated 96-well plates (Greiner #655090) and grown for 20–24 h. Cells were washed with HEPES buffer (Hank’s Balanced Salt Solution (HBBS) supplemented with 20 mM HEPES, 1 mM MgCl2, and 1 mM CaCl2; pH 7.4). Cells were loaded with 50 µL of 2 µM Fluo-4 AM dye (ThermoFisher #F14202) in HEPES buffer supplemented with 2.5 mM probenecid and 0.01% Pluronic F-68 (ThermoFisher #24040032) for 1 h at 37 °C. Cells were washed with HEPES buffer. 50 µL HEPES buffer supplemented with 2.5 mM probenecid was added, and the cells were incubated for 10 min at 37 °C before measurement. 50 µL test compounds diluted in HEPES buffer from DMSO stocks (final DMSO concentration of maximally 0.3%) were added automatically after baseline measurements. The intracellular calcium mobilization was measured on a FlexStation 3 Multimode Microplate Reader (Molecular Devices) at 37 °C with filters for excitation of 485 nm and emission of 525 nm.
(§2) Our primary compound screening protocol consisted of two subsequent steps that allowed to screen for agonists and antagonists simultaneously. In the first step, the screening compounds were applied at 10 µM to test for agonist activity (agonist mode). Following 20 min incubation with the compounds added in the first step, in the second step, an EC80 concentration (800 nM) of the reference agonist Lundbeck Cmp 1a was applied to test for antagonist activity (antagonist mode).
Pharmacological data and statistical analyses were performed in GraphPad Prism v9–10 (Graphpad Software Inc., San Diego, CA), which are also specifically described in the figure and table legends. The functional assay responses were normalized to buffer (0%) and Lundbeck Cmp 1a or JNJ-63533054 (100%), for Ca^2+ and IP1 experiments in the GPR139-CHOk1 stable cell line or Ca^2+, G protein activation, and arrestin-3 recruitment experiments in the HEK293A cells transiently transfected with GPR139, respectively. Data are from at least three independent experiments, unless stated otherwise. Concentration-response curves were fitted applying non-linear regression using the log (agonist) versus response model with variable slope. ANOVA was applied for comparing results and determining statistical significance.

GPR139 [2] = target: T1, GPR139; assay: Ca2+ mobilization assay, antagonist mode (EC80 800 nM Lundbeck Cmp 1a after 20 min preincubation), GPR139-CHOk1; type: cell-based; details: individual replicates (Supplementary Figure 1)
Protocol: as §1
as §2, with “(antagonist mode). In the agonist mode (first step) response is seen only with compounds having agonist activity (Cmp 1a), but not with non-receptor-binding compounds (Vehicle) or antagonists (NCRW0105-E06) (Supplementary Fig. 14). […] No antagonist compounds were identified in this study.” for “(antagonist mode).”

| SMILES | Ca2+ signal (% of Cmp 1a) (GPR139 [1]) | Ca2+ signal (% of Cmp 1a) (GPR139 [2]) |
| --- | --- | --- |
| O=C(Nc1ccnc(-c2ccccc2)n1)C1COc2ccccc21 (stereo not drawn) [Compound 31, O=C(NC=1C=CN=C(N1)C=2C=CC=CC2)C3COC=4C=CC=CC34] | -5 % of Cmp 1a and 0.292 % of Cmp 1a and -0.778 % of Cmp 1a | 69.7439 % of Cmp 1a and 83.7645 % of Cmp 1a and 84.6387 % of Cmp 1a |
| CC(NC(=O)c1occc1COc1ccccc1)c1ccon1 (stereo not drawn) [Compound 32, CC(NC(=O)C=1OC=CC1COC=2C=CC=CC2)C=3C=CON3] | -11 % of Cmp 1a and -0.416 % of Cmp 1a and 7 % of Cmp 1a | 55.4318 % of Cmp 1a and 73.597 % of Cmp 1a and 97.305 % of Cmp 1a |
| O=C(CCn1nnc2ccccc2c1=O)Nc1ccc(F)c(F)c1F [Compound 33, FC=1C=CC(NC(=O)CCN2N=NC=3C=CC=CC3C2=O)=C(F)C1F] | -1.58 % of Cmp 1a and 1 % of Cmp 1a and 18 % of Cmp 1a | 80.4976 % of Cmp 1a and 74.4333 % of Cmp 1a and 82.6399 % of Cmp 1a |
| CC(NC(=O)N1CCCCC1c1cnn(C)c1)c1nccs1 (stereo not drawn) [Compound 34, CC(NC(=O)N1CCCCC1C=2C=NN(C)C2)C3=NC=CS3] | -1.66 % of Cmp 1a and 6.32 % of Cmp 1a and -6 % of Cmp 1a | 69.32 % of Cmp 1a and 71.8073 % of Cmp 1a and 90.0552 % of Cmp 1a |
| O=C(NCc1cccnc1)c1cn(-c2cccc(Cl)c2)nn1 [Compound 35, ClC=1C=CC=C(C1)N2C=C(N=N2)C(=O)NCC=3C=CC=NC3] | 5.3 % of Cmp 1a and 12 % of Cmp 1a and 7.49 % of Cmp 1a | 84.5048 % of Cmp 1a and 71.7301 % of Cmp 1a and 84.4533 % of Cmp 1a |
| CC(=O)c1sc(NC(=O)Cc2cncs2)nc1-c1ccccc1 [Compound 36, CC(=O)C=1SC(NC(=O)CC2=CN=CS2)=NC1C=3C=CC=CC3] | 9 % of Cmp 1a and -3 % of Cmp 1a and 2.21 % of Cmp 1a | 88.0715 % of Cmp 1a and 92.8057 % of Cmp 1a and 66.8597 % of Cmp 1a |
| Cc1ccc(-n2cc(NC(=O)NCc3cccs3)cn2)c(C)c1 [Compound 37, CC=1C=CC(=C(C)C1)N2C=C(NC(=O)NCC3=CC=CS3)C=N2] | -6 % of Cmp 1a and 12 % of Cmp 1a and 7 % of Cmp 1a | 89.9792 % of Cmp 1a and 76.2749 % of Cmp 1a and 86.0947 % of Cmp 1a |
| Cc1nnsc1C(=O)N1CCCC1c1nc2cc(Cl)ccc2[nH]1 (stereo not drawn) [Compound 38, CC=1N=NSC1C(=O)N2CCCC2C3=NC=4C=C(Cl)C=CC4N3] | 1.3 % of Cmp 1a and 1.18 % of Cmp 1a and -5.34 % of Cmp 1a | 85.3922 % of Cmp 1a and 96.4303 % of Cmp 1a and 86.2753 % of Cmp 1a |
| Cn1ccc(CNC(=O)Nc2cc(-c3cc(F)cc(F)c3)nn2C)c1 [Compound 39, CN1C=CC(CNC(=O)NC2=CC(=NN2C)C=3C=C(F)C=C(F)C3)=C1] | -2.56 % of Cmp 1a and -1.6 % of Cmp 1a and -1.54 % of Cmp 1a | 63.6266 % of Cmp 1a and 84.5465 % of Cmp 1a and 97.4779 % of Cmp 1a |
| CN(Cc1ncc(Cl)n1C)c1nc2cc([N+](=O)[O-])ccc2[nH]1 [Compound 40, CN(CC1=NC=C(Cl)N1C)C2=NC=3C=C(C=CC3N2)[N+](=O)[O-]] | -0.934 % of Cmp 1a and 6 % of Cmp 1a and 11 % of Cmp 1a | 84.3072 % of Cmp 1a and 83.9821 % of Cmp 1a and 105.029 % of Cmp 1a |
| Cc1ccc(NC(=O)C2Cc3ccccc32)cc1C(=O)N(C)C(C)C (stereo not drawn) [Compound 41, CC(C)N(C)C(=O)C=1C=C(NC(=O)C2CC=3C=CC=CC23)C=CC1C] | 0.898 % of Cmp 1a and -4.45 % of Cmp 1a and -1.11 % of Cmp 1a | 75.8841 % of Cmp 1a and 100.088 % of Cmp 1a and 66.5963 % of Cmp 1a |
| Cn1nc(-c2ccc(F)cc2F)cc1NC(=O)NCc1ccccn1 [Compound 42, CN1N=C(C=C1NC(=O)NCC=2C=CC=CN2)C=3C=CC(F)=CC3F] | 0.111 % of Cmp 1a and 2.67 % of Cmp 1a and 15 % of Cmp 1a | 73.5301 % of Cmp 1a and 76.7288 % of Cmp 1a and 79.4888 % of Cmp 1a |
| O=C(Nc1ccnc(OCc2ccccc2)c1)C1Cc2ccccc21 (stereo not drawn) [Compound 43, O=C(NC=1C=CN=C(OCC=2C=CC=CC2)C1)C3CC=4C=CC=CC34] | 0.84 % of Cmp 1a and 9 % of Cmp 1a and 13 % of Cmp 1a | 90.3553 % of Cmp 1a and 81.3074 % of Cmp 1a and 78.6074 % of Cmp 1a |
| COCC1(CNC(=O)NCc2ccccc2)OCCc2ccccc21 (stereo not drawn) [Compound 44, COCC1(CNC(=O)NCC=2C=CC=CC2)OCCC=3C=CC=CC31] | 8 % of Cmp 1a and -1.67 % of Cmp 1a and 19 % of Cmp 1a | 80.8112 % of Cmp 1a and 71.471 % of Cmp 1a and 86.0472 % of Cmp 1a |
| CCn1c(Nc2ccn(C)n2)nnc1-c1n[nH]c(=O)c2ccccc12 [Compound 45, CCN1C(NC=2C=CN(C)N2)=NN=C1C3=NNC(=O)C=4C=CC=CC34] | 0.117 % of Cmp 1a and 7 % of Cmp 1a and 8 % of Cmp 1a | 78.1245 % of Cmp 1a and 83.0928 % of Cmp 1a and 73.9872 % of Cmp 1a |
| O=C(CCn1cnc2cc(Cl)ccc2c1=O)Nc1ccccc1F [Compound 46, FC=1C=CC=CC1NC(=O)CCN2C=NC=3C=C(Cl)C=CC3C2=O] | 2.73 % of Cmp 1a and -6 % of Cmp 1a (2×) | 71.2649 % of Cmp 1a and 88.164 % of Cmp 1a and 80.2917 % of Cmp 1a |
| CC(=O)Nc1nc(Cn2cnc3c2CC(C)C(C)C3)cs1 (stereo not drawn) [Compound 47, CC1CC=2N=CN(CC3=CSC(NC(=O)C)=N3)C2CC1C] | -0.697 % of Cmp 1a and 10 % of Cmp 1a and 0.881 % of Cmp 1a | 79.7228 % of Cmp 1a and 79.8068 % of Cmp 1a and 92.3954 % of Cmp 1a |
| Cc1cc2c(=O)n(CC(O)C(C)c3ccccc3)cnc2cc1F (stereo not drawn) [Compound 48, CC(C(O)CN1C=NC=2C=C(F)C(C)=CC2C1=O)C=3C=CC=CC3] | 3.29 % of Cmp 1a and 10 % of Cmp 1a and 6 % of Cmp 1a | 94.1087 % of Cmp 1a and 84.538 % of Cmp 1a and 82.6111 % of Cmp 1a |
| Cc1ccc(C(C)NC(=O)Nc2ccc3c(c2)CCCC3=O)o1 (stereo not drawn) [Compound 49, CC(NC(=O)NC=1C=CC=2C(=O)CCCC2C1)C3=CC=C(C)O3] | 20 % of Cmp 1a and 6 % of Cmp 1a and 32 % of Cmp 1a | 51.3038 % of Cmp 1a and 78.2883 % of Cmp 1a and 60.6272 % of Cmp 1a |
| CC(NC(=O)N(C)Cc1cccc(N(C)C)c1)c1csnn1 (stereo not drawn) [Compound 50, CC(NC(=O)N(C)CC=1C=CC=C(C1)N(C)C)C2=CSN=N2] | -2.47 % of Cmp 1a and 0.0154 % of Cmp 1a and -4 % of Cmp 1a | 75.065 % of Cmp 1a and 68.1289 % of Cmp 1a and 85.7156 % of Cmp 1a |
| CC(Sc1nnc(C(C)(C)C)[nH]1)C(=O)NC(C)c1ccccc1 (stereo not drawn) [Compound 51, CC(NC(=O)C(C)SC1=NN=C(N1)C(C)(C)C)C=2C=CC=CC2] | -5 % of Cmp 1a and -3 % of Cmp 1a and 10 % of Cmp 1a | 68.4513 % of Cmp 1a and 72.762 % of Cmp 1a and 87.4722 % of Cmp 1a |
